Measurements as given in PMC7997155, “Permeability of the Cyanotoxin Microcystin-RR across a Caco-2 Cells Monolayer” (Toxins, 2021).
Starred links: 1 amine or outer side, 2 acyl side, 3 side chain; linkers in the order of their positions; H or OH if unused. Positions of bridges follow the written chain, without caps; N, C: chain ends. Non-standard residues stand in square brackets, D forms with d. Residues, ends and D or L forms follow the SMILES beside them. Adda = CO[C@@H](Cc1ccccc1)[C@@H](C)/C=C(C)/C=C/[C@H](N[*:1])[C@H](C)C(=O)[*:2]; dAsp(3S-Me) = C[C@H](C(=O)[*:3])[C@@H](N[*:1])C(=O)[*:2]; d(γGlu) = O=C(O)[C@@H](CCC(=O)[*:2])N[*:1]; NMeDha = C=C(NC)C(=O)O

Columns and labels:
Caco-2 cell monolayer = assay type: in vitro ADME, human
[1] = Binding to plastic (preliminary experiment); assay type: in vitro ADME
Procedure: Experiments were performed as previously described, with a few modifications, described as follows. Four solutions of MC-RR (1, 10, 25, and 55 µM) were prepared in the transport buffer (HBSS, 4-(2-Hydroxyethyl)piperazine-1-ethanesulfonic acid (HEPES) 5 mM, pH 7.4) in glass vials and loaded into the donor compartments: 300 µL in compartments A (for A–B transport experiments) and 1000 µL in compartment B (for B–A transport experiments). The final concentration of methanol in the transport buffer for all MC-RR solutions was set at 1.3%, which was previously shown not to alter the integrity of Caco-2 cell monolayers. In a preliminary experiment, the binding of MC-RR to plastic was checked and considered negligible (data not shown). At different time points (1, 2, 4, 6, and 24 h for A–B transport experiments and 1, 2, 4, and 6 h for B–A transport experiments), the whole volume of each compartment was harvested and stored in glass vials at −20 °C until analysis. Due to the toxicity of methanol 1.3% when applied in compartment B for 24 h, this time point was not performed for B–A experiments. Only Caco-2 cell monolayers with a TEER > 250 ohm.cm² before and after transport experiments were used. […]. These threshold values correspond to those preconized by the European Center for the Validation of Alternatives Methods. Four independent experiments were performed.

Caco-2 cell monolayers = conditions: Caco-2 monolayers; ref historical data generated in our laboratory; cited from earlier work
Procedure: Experiments were performed as previously described, with a few modifications, described as follows. Four solutions of MC-RR (1, 10, 25, and 55 µM) were prepared in the transport buffer (HBSS, 4-(2-Hydroxyethyl)piperazine-1-ethanesulfonic acid (HEPES) 5 mM, pH 7.4) in glass vials and loaded into the donor compartments: 300 µL in compartments A (for A–B transport experiments) and 1000 µL in compartment B (for B–A transport experiments). The final concentration of methanol in the transport buffer for all MC-RR solutions was set at 1.3%, which was previously shown not to alter the integrity ...

For `C=C1C(=O)N[C@H](C)C(=O)N[C@@H](CCCNC(=N)N)C(=O)N[C@@H](C(=O)O)[C@H](C)C(=O)N[C@@H](CCCNC(=N)N)C(=O)N[C@@H](/C=C/C(C)=C/[C@H](C)[C@H](Cc2ccccc2)OC)[C@H](C)C(=O)N[C@@H](C(=O)O)CCC(=O)N1C` [MC-RR, microcystin-RR] (R[Adda][d(γGlu)][NMeDha][dA]R[dAsp(3S-Me)]-OH; lactam N-7), the “Amount detected in the apical compartment” value (Caco-2 cell monolayer) was “below the lower LOQ”, the “Amount detected in the basolateral compartment” value (Caco-2 cell monolayer) was “below the lower LOQ” and the “Decrease of MC-RR amounts in the basolateral (donor) compartment” value (Caco-2 cell monolayer) was 25 % of the loaded amount. For the same compound, the “Involvement of an active efflux mechanism (A–B versus B–A Papp)” value (Caco-2 cell monolayer) was “no involvement of an active efflux mechanism” and the Binding to plastic [1] was “negligible”.
For lucifer yellow, the “Papp of lucifer yellow corresponding to a TEER value of 250 ohm.cm²” value (Caco-2 cell monolayers) is given as 0.6 ×10⁻⁶ cm/s.
